Laboratory results published in PubChem BioAssay AID248 (DTP/NCI, 2004).
“And” between values parts separate entries of the source, which are not always exact repeats. Equal values may be shown once. Toxic doses and inconclusive results are not listed. No stated cut-off is given here; in the data, active means T/C of 150% or more; inactive means T/C below 125%.

Tested on: L1210 leukemia ip in BDF1 mice, survival T/C
Experiment: NCI In Vivo Anticancer Drug Screen. Data for tumor model L1210 Leukemia (intraperitoneal) in B6D2F1 (BDF1) mice
Conditions: endpoint: mean survival time, higher = longer survival
Method in brief: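 Ratio derived from survival: compound-dosed mice over vehicle-dosed mice, all bearing a transplantable tumor.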

[1] = dose: 100.0 mg/kg/injection, schedule: Q04DX002 (ip), vehicle: Klucel (hydroxypropylcellulose) (HPC)
[2] = dose: 100.0 mg/kg/injection, schedule: Q01DX001 (ip), vehicle: carboxymethylcellulose (CMC)
[3] = dose: 200.0 mg/kg/injection, schedule: Q01DX001 (ip), vehicle: carboxymethylcellulose (CMC)
[4] = dose: 400.0 mg/kg/injection, schedule: Q01DX001 (ip), vehicle: carboxymethylcellulose (CMC)
[5] = dose: 100.0 mg/kg/injection, schedule: Q01DX005 (ip), vehicle: saline
[6] = dose: 200.0 mg/kg/injection, schedule: Q01DX005 (ip), vehicle: saline
[7] = dose: 100.0 mg/kg/injection, schedule: Q01DX009 (ip), vehicle: saline with Tween-80
[8] = dose: 200.0 mg/kg/injection, schedule: Q01DX009 (ip), vehicle: saline with Tween-80
[9] = dose: 50.0 mg/kg/injection, schedule: Q01DX009 (ip), vehicle: saline
[10] = dose: 100.0 mg/kg/injection, schedule: Q01DX009 (ip), vehicle: saline
[11] = dose: 100.0 mg/kg/injection, schedule: Q04DX003 (ip), vehicle: saline
[12] = dose: 12.5 mg/kg/injection, schedule: Q01DX009 (ip), vehicle: saline
[13] = dose: 25.0 mg/kg/injection, schedule: Q04DX003 (ip), vehicle: saline
[14] = dose: 10.0 mg/kg/injection, schedule: Q01DX009 (ip), vehicle: Klucel (hydroxypropylcellulose) (HPC)
[15] = dose: 25.0 mg/kg/injection, schedule: Q01DX009 (ip), vehicle: saline
[16] = dose: 100.0 mg/kg/injection, schedule: Q01DX001 (ip), vehicle: saline
[17] = dose: 200.0 mg/kg/injection, schedule: Q01DX001 (ip), vehicle: saline

Measured: T/C

NC(N)=N/N=C/c1cc(Cl)ccc1O
inactive: dose: 12.5 mg/kg/injection, schedule: Q04DX002 (ip), vehicle: Klucel (hydroxypropylcellulose) (HPC) 93 % of control | dose: 25.0 mg/kg/injection, schedule: Q04DX002 (ip), vehicle: Klucel (hydroxypropylcellulose) (HPC) 93 % of control and 110 % of control | [1] 106 % of control

CCOC(=O)Nc1cc(N)c([N+](=O)[O-])c(NC(c2ccccc2)c2ccccc2)n1
inactive: [2] 95 % of control | [3] 87 % of control | [4] 92 % of control

CC(=O)OC1CC(n2cc(C)c(=O)[nH]c2=O)OC1CO (centres undefined)
inactive: [5] 112 % of control | [6] 109 % of control

O=C(NCCS)c1ccc(C(=O)NCCS)cc1
inactive: [1] 95 % of control | dose: 200.0 mg/kg/injection, schedule: Q04DX002 (ip), vehicle: Klucel (hydroxypropylcellulose) (HPC) 103 % of control | dose: 400.0 mg/kg/injection, schedule: Q04DX002 (ip), vehicle: Klucel (hydroxypropylcellulose) (HPC) 103 % of control

COC(=O)C1=C(C(=O)OC)C2C=CC1C1(C)C(=O)N(C)C21C (centres undefined)
inactive: dose: 75.0 mg/kg/injection, schedule: Q04DX002 (ip), vehicle: Klucel (hydroxypropylcellulose) (HPC) 90 % of control | dose: 300.0 mg/kg/injection, schedule: Q04DX002 (ip), vehicle: Klucel (hydroxypropylcellulose) (HPC) 86 % of control

CC(=O)OCC1OC(Oc2ccccc2)C(OC(C)=O)C(OC(C)=O)C1OC(C)=O (centres undefined)
inactive: dose: 100.0 mg/kg/injection, schedule: Q01DX001 (ip), vehicle: saline with Tween-80 101 % of control | [7] 101 % of control | dose: 200.0 mg/kg/injection, schedule: Q01DX001 (ip), vehicle: saline with Tween-80 96 % of control | [8] 95 % of control | dose: 400.0 mg/kg/injection, schedule: Q01DX001 (ip), vehicle: saline with Tween-80 101 % of control | dose: 400.0 mg/kg/injection, schedule: Q01DX009 (ip), vehicle: saline with Tween-80 96 % of control

CCOc1ccc(C(=O)Nc2ccc(C3=NCCN3)cc2)cc1C(=O)Nc1ccc(C2=NCCN2)cc1
inactive: dose: 30.0 mg/kg/injection, schedule: Q01DX Z (oral), vehicle: saline 93 % of control | dose: 60.0 mg/kg/injection, schedule: Q01DX Z (oral), vehicle: saline 91 % of control | dose: 62.5 mg/kg/injection, schedule: Q01DX010 (oral), vehicle: saline 107 % of control | dose: 120.0 mg/kg/injection, schedule: Q01DX Z (oral), vehicle: saline 103 % of control | dose: 125.0 mg/kg/injection, schedule: Q01DX010 (oral), vehicle: saline 112 % of control | dose: 240.0 mg/kg/injection, schedule: Q01DX Z (oral), vehicle: saline 92 % of control | dose: 250.0 mg/kg/injection, schedule: Q01DX010 (oral), vehicle: saline 112 % of control | dose: 500.0 mg/kg/injection, schedule: Q01DX010 (oral), vehicle: saline 106 % of control

C=CC1COC=C2CN3CCc4cc(OC)c(O)cc4C3CC21 (centres undefined)
inactive: [9] 100 % of control | [10] 104 % of control | [11] 100 % of control | dose: 200.0 mg/kg/injection, schedule: Q01DX009 (ip), vehicle: saline 98 % of control | dose: 200.0 mg/kg/injection, schedule: Q04DX003 (ip), vehicle: saline 101 % of control | dose: 400.0 mg/kg/injection, schedule: Q04DX003 (ip), vehicle: saline 97 % of control

[O]=[Cr](=[O])([OH])[O][Cr](=[O])(=[O])[OH]
inactive: dose: 6.25 mg/kg/injection, schedule: Q01DX009 (ip), vehicle: saline 104 % of control | [12] 97 % of control | [13] 108 % of control

C[n+]1ccccc1SC12CC3CC(CC(C3)C1)C2
inactive: [14] 113 % of control

Nc1nc(N)c2nc(CNc3ccc(C(=O)NCC(=O)O)cc3)cnc2n1
inactive: dose: 5.0 mg/kg/injection, schedule: Q01DX009 (ip), vehicle: Klucel (hydroxypropylcellulose) (HPC) 93 % of control | [14] 101 % of control | dose: 20.0 mg/kg/injection, schedule: Q01DX009 (ip), vehicle: Klucel (hydroxypropylcellulose) (HPC) 109 % of control | dose: 40.0 mg/kg/injection, schedule: Q01DX009 (ip), vehicle: Klucel (hydroxypropylcellulose) (HPC) 105 % of control

COc1cc2c(cc1O)C(=O)CCC(C(=O)O)=C2
inactive: dose: 50.0 mg/kg/injection, schedule: Q01DX009 (ip), vehicle: saline with Tween-80 93 % of control | [7] 107 % of control | [8] 96 % of control

CCCCN(C)/N=N/c1nc[nH]c1C(=O)OC
inactive: dose: 33.0 mg/kg/injection, schedule: Q01DX015 (ip), vehicle: carboxymethylcellulose (CMC) 108 % of control | dose: 45.0 mg/kg/injection, schedule: Q01DX015 (ip), vehicle: carboxymethylcellulose (CMC) 117 % of control | dose: 60.0 mg/kg/injection, schedule: Q01DX015 (ip), vehicle: carboxymethylcellulose (CMC) 95 % of control | dose: 75.0 mg/kg/injection, schedule: Q01DX015 (ip), vehicle: carboxymethylcellulose (CMC) 86 % of control | [2] 98 % of control | [3] 104 % of control | [4] 124 % of control

O=C(O)C1CCC(CC2CC3CCC2C3)CC1 (centres undefined)
inactive: [7] 90 % of control | [8] 96 % of control

CN(C)C(=O)/N=N/C(=O)N(C)C
inactive: [15] 97 % of control | [13] 96 % of control | [9] 106 % of control | dose: 50.0 mg/kg/injection, schedule: Q04DX003 (ip), vehicle: saline 102 % of control | [10] 101 % of control | [11] 102 % of control

COc1ccc(C(=S)N(C)c2ccccc2C)cc1
inactive: dose: 100.0 mg/kg/injection, schedule: Q01DX001 (ip), vehicle: Klucel (hydroxypropylcellulose) (HPC) 98 % of control | dose: 100.0 mg/kg/injection, schedule: Q04DX003 (ip), vehicle: Klucel (hydroxypropylcellulose) (HPC) 96 % of control | dose: 200.0 mg/kg/injection, schedule: Q01DX001 (ip), vehicle: Klucel (hydroxypropylcellulose) (HPC) 112 % of control | dose: 200.0 mg/kg/injection, schedule: Q04DX003 (ip), vehicle: Klucel (hydroxypropylcellulose) (HPC) 103 % of control | dose: 400.0 mg/kg/injection, schedule: Q01DX001 (ip), vehicle: Klucel (hydroxypropylcellulose) (HPC) 105 % of control | dose: 400.0 mg/kg/injection, schedule: Q04DX003 (ip), vehicle: Klucel (hydroxypropylcellulose) (HPC) 100 % of control

Cc1sc2ccccc2[n+]1CCCCS(=O)(=O)O
inactive: [16] 92 % of control | [17] 97 % of control | dose: 400.0 mg/kg/injection, schedule: Q01DX001 (ip), vehicle: saline 97 % of control

O=C(O)C(S)C(S)C(=O)O.[As] (centres undefined)
inactive: [12] 96 % of control | [15] 104 % of control | [9] 98 % of control

Nc1ncnc2c1ncn2C1SC(CO)C(O)C1O (centres undefined)
inactive: dose: 50.0 mg/kg/injection, schedule: Q01DX001 (ip), vehicle: saline 93 % of control and 103 % of control | [16] 102 % of control and 105 % of control | [5] 108 % of control and 95 % of control | [17] 104 % of control and 100 % of control | [6] 109 % of control and 95 % of control

Cc1ccc(NC2=CC(=O)C(=O)c3ccccc32)cc1
inactive: dose: 100.0 mg/kg/injection, schedule: Q01DX001 (ip), vehicle: other 103 % of control | dose: 200.0 mg/kg/injection, schedule: Q01DX001 (ip), vehicle: other 98 % of control | dose: 400.0 mg/kg/injection, schedule: Q01DX001 (ip), vehicle: other 92 % of control
